# Marks after values point to notes of the source that are not given here.
# Settings: pH 2.7
row,SMILES,LogP
1,Cn1c(C(=NOCc2cccc(NC(=O)OCCCCCCCl)n2)c2ccccc2)noc1=O [compound 486],4.49 [a]
2,Cc1ccccc1COC(=O)Nc1cccc(CON=C(c2ccccc2)c2noc(=O)n2C)n1 [compound 487],4.29 [a]
3,CCC=CCCCOC(=O)Nc1cccc(CON=C(c2ccccc2)c2noc(=O)n2C)n1 [compound 488],4.78 [a]
4,COC(=O)C(C)(C)COC(=O)Nc1cccc(CON=C(c2ccccc2)c2noc(=O)n2C)n1 [compound 489],3.65 [a]
5,C=CCOCCOC(=O)Nc1cccc(CON=C(c2ccccc2)c2noc(=O)n2C)n1 [compound 490],3.37 [a]
6,COC(=O)C(C)COC(=O)Nc1cccc(CON=C(c2ccccc2)c2noc(=O)n2C)n1 (stereo not drawn) [compound 491],3.33 [a]
7,CC(C)c1ccc(OC(=O)Nc2cccc(CON=C(c3ccccc3)c3noc(=O)n3C)n2)cc1 [compound 492],4.67 [a]
8,Cc1cccc(C)c1OC(=O)Nc1cccc(CON=C(c2ccccc2)c2noc(=O)n2C)n1 [compound 494],4.2 [a]
9,Cn1c(C(=NOCc2cccc(NC(=O)OCc3ccccc3F)n2)c2ccccc2)noc1=O [compound 495],4.01 [a]
10,Cn1c(C(=NOCc2cccc(NC(=O)OCCOC3CCCCC3)n2)c2ccccc2)noc1=O [compound 496],4.31 [a]
11,Cn1c(C(=NOCc2cccc(NC(=O)OCCCc3cccnc3)n2)c2ccccc2)noc1=O [compound 497],2.11 [a]
12,Cc1cc(C)cc(COC(=O)Nc2cccc(CON=C(c3ccccc3)c3noc(=O)n3C)n2)c1 [compound 498],4.68 [a]
13,Cn1c(C(=NOCc2cccc(NC(=O)OCC(F)(F)F)n2)c2ccccc2)noc1=O [compound 500],3.57 [a]
14,Cn1c(C(=NOCc2cccc(NC(=O)OCc3cccc(F)c3)n2)c2ccccc2)noc1=O [compound 501],4.01 [a]
15,CC(OC(=O)Nc1cccc(CON=C(c2ccccc2)c2noc(=O)n2C)n1)C1CCCC1 (stereo not drawn) [compound 502],4.82 [a]
16,CCC#CCOC(=O)Nc1cccc(CON=C(c2ccccc2)c2noc(=O)n2C)n1 [compound 503],3.78 [a]
17,C=C(C)COC(=O)Nc1cccc(CON=C(c2ccccc2)c2noc(=O)n2C)n1 [compound 504],3.73 [a]
18,CC=CCCCOC(=O)Nc1cccc(CON=C(c2ccccc2)c2noc(=O)n2C)n1 [compound 505],4.39 [a]
19,CC(C)CCCCOC(=O)Nc1cccc(CON=C(c2ccccc2)c2noc(=O)n2C)n1 [compound 506],5.17 [a]
20,CCCC=CCOC(=O)Nc1cccc(CON=C(c2ccccc2)c2noc(=O)n2C)n1 [compound 507],4.56 [a]
21,CC=CCCCOC(=O)Nc1cccc(CON=C(c2ccccc2)c2noc(=O)n2C)n1 [compound 509],4.44 [a]
22,CCCC#CCCOC(=O)Nc1cccc(CON=C(c2ccccc2)c2noc(=O)n2C)n1 [compound 511],4.31 [a]
23,CC(=O)OCCCCOC(=O)Nc1cccc(CO/N=C(/c2ccccc2)c2noc(=O)n2C)n1 [compound 514],3.35 [a]
24,C=CC(=O)OCCOC(=O)Nc1cccc(CO/N=C(/c2ccccc2)c2noc(=O)n2C)n1 [compound 515],3.21 [a]
25,CSCCCOC(=O)Nc1cccc(CO/N=C(/c2ccccc2)c2noc(=O)n2C)n1 [compound 516],3.68 [a]
26,Cn1c(/C(=N\OCc2cccc(NC(=O)OCCCl)n2)c2ccccc2)noc1=O [compound 518],3.29 [a]
27,CCC1(COC(=O)Nc2cccc(CO/N=C(/c3ccccc3)c3noc(=O)n3C)n2)COC1 [compound 520],3.27 [a]

row,SMILES,LogP
1,Cc1ccccc1OC(=O)Nc1cccc(CO/N=C(/c2ccccc2)c2noc(=O)n2C)n1 [compound 521],3.96 [a]
2,CC/C=C/CCOC(=O)Nc1cccc(CO/N=C(/c2ccccc2)c2noc(=O)n2C)n1 [compound 522],4.46 [a]
3,Cn1c(/C(=N\OCc2cccc(NC(=O)OCCCC3CCCCC3)n2)c2ccccc2)noc1=O [compound 523],5.71 [a]
4,Cn1c(/C(=N\OCc2cccc(NC(=O)OCC3CCOC3)n2)c2ccccc2)noc1=O (stereo not drawn) [compound 524],2.98 [a]
5,Cn1c(/C(=N\OCc2cccc(NC(=O)OCC3CC=CCC3)n2)c2ccccc2)noc1=O (stereo not drawn) [compound 526],4.51 [a]
6,Cn1c(/C(=N\OCc2cccc(NC(=O)OCc3cccs3)n2)c2ccccc2)noc1=O [compound 527],3.83 [a]
7,Cn1c(/C(=N\OCc2cccc(NC(=O)OCc3ccc(F)cc3)n2)c2ccccc2)noc1=O [compound 528],3.99 [a]
8,Cn1c(/C(=N\OCc2cccc(NC(=O)OCC3COCO3)n2)c2ccccc2)noc1=O (stereo not drawn) [compound 529],2.73 [a]
9,CCCOCCOC(=O)Nc1cccc(CO/N=C(/c2ccccc2)c2noc(=O)n2C)n1 [compound 531],3.57 [a]
10,COc1ccc(OC(=O)Nc2cccc(CO/N=C(/c3ccccc3)c3noc(=O)n3C)n2)cc1 [compound 532],3.69 [a]
11,Cn1c(/C(=N\OCc2cccc(NC(=O)OCCC3CCCC3)n2)c2ccccc2)noc1=O [compound 533],4.9 [a]
12,CCC/C=C\COC(=O)Nc1cccc(CO/N=C(/c2ccccc2)c2noc(=O)n2C)n1 [compound 535],4.53 [a]
13,Cn1c(/C(=N\OCc2cccc(NC(=O)OCC(Cl)(Cl)Cl)n2)c2ccccc2)noc1=O [compound 536],4.15 [a]
14,Cn1c(/C(=N\OCc2cccc(NC(=O)OCCC3CCOCC3)n2)c2ccccc2)noc1=O [compound 537],3.44 [a]
15,CC/C=C\CCOC(=O)Nc1cccc(CO/N=C(/c2ccccc2)c2noc(=O)n2C)n1 [compound 540],4.44 [a]
16,Cn1c(/C(=N\OCc2cccc(NC(=O)OCC3CCCCC3)n2)c2ccccc2)noc1=O [compound 541],4.88 [a]
17,Cn1c(/C(=N\OCc2cccc(NC(=O)OCC[Si](C)(C)C)n2)c2ccccc2)noc1=O [compound 542],4.88 [a]
18,Cn1c(/C(=N\OCc2cccc(NC(=O)OCCCCl)n2)c2ccccc2)noc1=O [compound 544],3.6 [a]
19,CC(C)OCCOC(=O)Nc1cccc(CO/N=C(/c2ccccc2)c2noc(=O)n2C)n1 [compound 545],3.44 [a]
20,Cc1ccc(COC(=O)Nc2cccc(CO/N=C(/c3ccccc3)c3noc(=O)n3C)n2)cc1 [compound 546],4.31 [a]
21,COC(=O)Nc1cccc(CO/N=C(/c2ccccc2)c2noc(=O)n2C)n1 [compound 547],2.84 [a]
22,CC#CCCOC(=O)Nc1cccc(CO/N=C(/c2ccccc2)c2noc(=O)n2C)n1 [compound 548],3.58 [a]
23,Cn1c(/C(=N\OCc2cccc(NC(=O)OCCCC3CC3)n2)c2ccccc2)noc1=O [compound 549],4.37 [a]
24,Cn1c(/C(=N\OCc2cccc(NC(=O)OCCCCCl)n2)c2ccccc2)noc1=O [compound 550],3.83 [a]
25,Cn1c(/C(=N\OCc2cccc(NC(=O)OCCF)n2)c2ccccc2)noc1=O [compound 551],2.96 [a]
26,CC(C)c1cccc(OC(=O)Nc2cccc(CO/N=C(/c3ccccc3)c3noc(=O)n3C)n2)c1 [compound 553],4.64 [a]
27,CCOC(=O)COC(=O)Nc1cccc(CO/N=C(/c2ccccc2)c2noc(=O)n2C)n1 [compound 554],3.21 [a]

# Reference: patent US9090600B2, “Fungicidal 4-substituted-3-{phenyl[(heterocyclylmethoxy)imino]methyl}-1,2,4-oxadizol-5(4H)-one derivatives” (BAYER INTELLECTUAL PROPERTY GMBH, priority 2011, dated 2015)
